Assay results reported in patent publication US20120172392A1, “AMINE-BASED AND AMIDE-BASED INHIBITORS OF SEMICARBAZIDE-SENSITIVE AMINE OXIDASE (SSAO) ENZYME ACTIVITY AND VAP-1 MEDIATED ADHESION USEFUL FOR TREATMENT OF DISEASES” (priority 2004, published 2012).
Where a name gives a salt, the structure may show the parent alone.

What was measured:
[1] = system: Sprague Dawley rats; test: Carrageenan-induced rat paw edema; assay type: in vivo; conditions: 30 mg/kg p.o. one hour before carrageenan; 1-6 h
Description: Female Sprague Dawley rats were used and compounds of the invention were injected i.p. or dosed orally prior to carrageenan exposure. An equal volume of vehicle (PBS) was administered to the control group. Edema in the paws was induced as previously described by injecting 50 μl of a 0.5% solution of carrageenan (Type TV Lambda, Sigma) in saline with a 27-G needle s.c. in the right foot pat. (See Whiteley P. E. and Dalrymple S. A. (1998), Models of inflammation: carrageenan-induced paw edema in the rat, in Current Protocols in Pharmacology. Enna Si, Williams M, Ferkany J W, Kenaki T, Porsolt R E and Sullivan J P, eds., pp 5.4.1-5.4.3, John Wiley & Sons, New York) The size of the tested foot of each animal was measured volumetrically, before induction of edema, and at 1, 2, 3, 4, and 6 hours after carrageenan induction, to screen for compounds which inhibit the development of edema as compared to control animals.
The results of an experiment where three compounds of Example 21, Table I (LJP 1379, LJP 1383, LJP 1406) were used are shown in FIG. 2A, FIG. 2B, and FIG. 2C. […] Paw volumes were recorded at the indicated times and expressed as percent of the volume before injection (100%). […] Paw volumes were recorded at the indicated times and expressed as percent of the volume before injection (100%). […]

[2] = molecular target: T1, SSAO (Rattus norvegicus, UniProt O08590); test: In vitro inhibition of SSAO activity, radiolabeled benzylamine procedure (rat lung homogenate); assay type: biochemical
T1 construct: SSAO activity in 100 ul of lung homogenate was determined radiochemically; from tissue; host or cells: rat lung homogenate (1000 g supernatant)
T1 sequence (O08590 1-763): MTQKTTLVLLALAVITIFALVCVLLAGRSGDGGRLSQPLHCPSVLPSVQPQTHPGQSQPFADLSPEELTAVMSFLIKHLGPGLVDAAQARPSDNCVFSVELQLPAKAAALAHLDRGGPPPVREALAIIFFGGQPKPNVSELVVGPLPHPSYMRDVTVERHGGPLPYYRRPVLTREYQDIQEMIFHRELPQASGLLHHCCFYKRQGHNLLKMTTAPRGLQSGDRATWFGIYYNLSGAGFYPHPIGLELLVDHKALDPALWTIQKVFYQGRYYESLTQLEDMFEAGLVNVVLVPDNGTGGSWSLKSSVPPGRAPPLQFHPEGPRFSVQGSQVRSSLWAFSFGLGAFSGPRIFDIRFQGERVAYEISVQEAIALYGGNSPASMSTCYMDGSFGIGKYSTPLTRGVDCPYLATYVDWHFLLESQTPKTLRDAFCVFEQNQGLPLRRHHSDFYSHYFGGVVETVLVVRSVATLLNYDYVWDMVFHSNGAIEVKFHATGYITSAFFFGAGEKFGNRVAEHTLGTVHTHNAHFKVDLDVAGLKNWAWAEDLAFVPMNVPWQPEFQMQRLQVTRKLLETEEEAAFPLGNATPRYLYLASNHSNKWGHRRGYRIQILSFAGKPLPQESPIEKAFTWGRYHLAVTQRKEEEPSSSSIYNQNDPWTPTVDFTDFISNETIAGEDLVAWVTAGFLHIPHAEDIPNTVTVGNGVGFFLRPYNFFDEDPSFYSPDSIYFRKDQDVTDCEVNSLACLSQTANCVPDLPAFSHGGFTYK

Q: For `NCC(=O)NCc1cc(F)cc(C(F)(F)F)c1` [LJP 1383, 2-amino-N-(3-fluoro-5-trifluoromethylbenzyl)acetamide trifluoroacetate], which “paw swelling (paw volume)” value [1] is on record?
A: significantly reduced the paw swelling at all time points tested

Q: And the “reversibility of inhibition of SSAO enzyme activity” value [2]?
A: irreversible
